From PubChem BioAssay AID686920 (Broad Institute, 2013)

System: A673 NR0B1-luciferase reporter, viability-normalised luminescence
Assay: NR0B1 reporter signal reduction in A673 cells – cell-based, luciferase luminescence, cherry-pick, EWS/Fli inhibitor project, dose response (AID 686920)

SMILES	AC35 [µM]
CO[C@H]1CN(C)C(=O)c2cc(NC(=O)c3ccc(Oc4ccccc4)cc3)ccc2OC[C@H](C)NC[C@@H]1C	26.5
O=C(O)c1cccc(N/N=C/c2cccs2)c1	1.25
COc1ccccc1N(/N=C1\Sc2ccccc2C1=O)C(C)=O	23.6
O=C(O)c1ccc(N/N=C/c2c(F)cccc2Cl)cc1	4.61
C[C@@H]1CN([C@@H](C)CO)S(=O)(=O)c2ccc(C#Cc3ccncc3)cc2O[C@H]1CN(C)C(=O)C1CCOCC1	49.8
COc1ccc(CN(C)c2ncnc3sccc23)c(OC)c1OC	10.7
COc1cccc(-c2cccc(-c3nc(C(=O)NCC(F)(F)F)cc4c3[C@H](CCO)N([S@@](=O)C(C)(C)C)C4)c2)c1	3.19
Cc1c(Cl)cnc(NC(=O)COC(=O)c2ccc3ncsc3c2)c1Cl	7.23
C(=N\Nc1ccc2ccccc2n1)/c1ccc2c(c1)OCO2	5.76
COC(=O)C1=C(C)N(Cc2cccc(C(F)(F)F)c2)C(=NCc2ccc(OC)cc2)NC1c1cccc(F)c1 (centres undefined)	13.2
C[C@@H]1CN([C@H](C)CO)S(=O)(=O)c2ccc(C#Cc3ccncc3)cc2O[C@@H]1CN(C)C(=O)Nc1ccc2c(c1)OCO2	24.5
COc1ccc(/C=C/C(=O)c2cc(F)ccc2OC(=O)c2ccccc2OC)cc1OC	1.59
CC1=NC(=O)C(N=Nc2cccc(C(=O)O)c2)N1c1ccccc1 (centres undefined)	6.99
COc1ccccc1-c1ccc(OCCCN2CCC(C(O)(c3ccccc3)c3ccccc3)CC2)cc1	13.3
COc1ccc(C2=NNC(=Nc3cc(S(=O)(=O)N(C)C)ccc3C)SC2)c(OC)c1	9.53
COc1cc2c(OC(C)=O)c3c(c(-c4ccc5c(c4)OCO5)c2cc1OC)C(=O)OC3	2.34
COc1ccc(Nc2ncnc3ccc(Br)cc23)c(OC)c1	5.94
COc1ccc(-c2cc(CNc3nc(NC(C)C)nc4cc(-c5ccccc5)sc34)on2)cc1	15.7
C[C@]12CC[C@H]3[C@@H](CC[C@]4(O)C[C@@H](O)CC[C@]34C=O)[C@@]1(O)CC[C@@H]2C1=CC(=O)OC1	0.626
N#C[C@H]1N[C@H](CO)[C@H]1c1ccc(C#Cc2ccc(F)cc2)cc1	0.123
NC1=CC(=O)C(=O)c2cccnc21	14
C[C@H]1CN([C@@H](C)CO)S(=O)(=O)c2ccc(C#CC(C)(C)O)cc2O[C@@H]1CN(C)Cc1ccc(-c2ccccc2)cc1	1.09
C[C@@H]1CN([C@@H](C)CO)S(=O)(=O)c2ccc(C#CC(C)(C)O)cc2O[C@H]1CN(C)Cc1ccc(-c2ccccc2)cc1	2.8
Nc1cc2c(cc1Br)[nH]c(=O)c1ccccc12	43.3

SMILES	AC35 [µM]
Cc1ccccc1S(=O)(=O)N1CC[C@@H]2[C@@H](CO)Nc3ccc(-c4ccc(C#N)cc4)cc3[C@@H]21	5.42
COC1C(C)OC(OC2CC(C)(O)Cc3cc4c(c(O)c32)C(=O)c2c(O)cc3c(c2C4=O)OC2OC3(C)C(O)C(N(C)C)C2O)C(OC)C1(C)OC (centres undefined)	0.0829
O=C1c2ccc3c4c(ccc(c24)C(=O)N1c1cccc(O)c1)C(=O)N(c1cccc(O)c1)C3=O	5.35
C[C@@H]1CN([C@@H](C)CO)C(=O)c2cc(NS(=O)(=O)c3ccccc3)ccc2O[C@@H]1CN(C)Cc1ccc(C(=O)Nc2ccccc2N)cc1	9.16
Cc1ccc(/C=N/Nc2ccc3ccccc3n2)o1	4.21
COc1ccc(N=C2C(=O)Nc3ccc(C)c(Br)c32)cc1	10
CCn1c(C)cc(C(=O)CN2C(=O)c3ccccc3S2(=O)=O)c1C	1.23
CCN1CCS/C1=C\C=C\C1=[N+](CC)CCS1	12.3
CC[C@@H]1C[C@H]2CC[C@H](O2)[C@H](C)C(=O)O[C@@H](C)C[C@@H]2CC[C@@H](O2)[C@@H](C)C(=O)O[C@H](C)C[C@H]2CC[C@H](O2)[C@H](C)C(=O)O[C@@H](C)C[C@@H]2CC[C@@H](O2)[C@@H](C)C(=O)O1	0.0992
O=C(c1cccc(S(=O)(=O)NCc2ccccc2)c1)N1CCN(c2ccccc2)CC1	11.6
Oc1c(Cl)cc(Cl)c(Cl)c1Cc1c(O)c(Cl)cc(Cl)c1Cl	35.3
O=C1NC(=O)N(Cc2ccc(F)cc2)C(=O)/C1=C\C=C\c1ccco1	7.32
C[C@@H]1CN([C@H](C)CO)C(=O)CCCn2nncc2CO[C@H]1CN(C)Cc1ccc(Oc2ccccc2)cc1	34.1
CC(=O)c1ccc(NC(=O)c2noc3c2CCC3)cc1	3.06
C=C1C(=O)O[C@@H]2[C@H]1[C@@H](OC(=O)/C(C)=C/C)C/C(C)=C\C(=O)/C=C(\C)[C@@H]2O	8.09
COc1ccc(Cn2cc3c(-c4ccc(F)cc4)nnc-3c3cc(OC)c(OC)cc32)cc1	14.1
O=C(NC1CCCC1)N1CCCCN2[C@@H](CO)[C@@H](c3ccc(/C=C/c4ccccc4)cc3)[C@@H]2C1	14.3
Nc1nc(N)c(-c2cccc(C(F)(F)F)c2)c(Cc2cccc(C(F)(F)F)c2)n1	2.54
C[C@H]1CN([C@@H](C)CO)C(=O)c2cc(NC(=O)C3CCCCC3)ccc2O[C@H]1CN(C)Cc1ccc(C(=O)Nc2ccccc2N)cc1	4.8
O=C(NC(c1ccc(F)cc1)c1ccc2ccccc2n1)C1CCN(Cc2cccc(C(F)(F)F)c2)CC1 (centres undefined)	7.77
COC(=O)c1cccc(NC(=O)NC(=O)c2ccccc2Cl)c1	0.215
N#C[C@H]1[C@H](c2ccc(-c3ccccc3F)cc2)[C@@H](CO)N1C(=O)Cc1ccccc1	3.31
Nc1ccc(-c2cc3ccccc3c(=O)o2)cc1	0.485
CN=c1scc(-c2cccs2)n1/N=C/c1ccccc1O	0.298

SMILES	AC35 [µM]
O=C1NC(=O)N(c2ccccc2)C(=O)/C1=C\C=C\c1ccccc1	8.31
C[C@@H]1CCCCO[C@@H](CN(C)C(=O)Cc2ccccc2)[C@@H](C)CN([C@@H](C)CO)C(=O)c2cc(NS(=O)(=O)c3ccc(F)cc3)ccc2O1	43.9
OC[C@H]1O[C@@H](n2cnc3c(NCc4ccco4)ncnc32)[C@H](O)[C@@H]1O	4.99
C(=Cc1nc2ccccc2o1)c1ccc2c(c1)OCO2	4.5
COc1ccc2cc(C(N)=O)/c(=N\NC(=O)c3ccccc3)oc2c1	5.91
CCOC(=O)C1CCCCN1C(=O)CCc1c(C)nc2cc(-c3ccccc3)nn2c1C (centres undefined)	1.16
Cc1c(Cl)cccc1NC(=O)CCC(=O)N/N=C/c1ccc[nH]1	4.78
CC(=NNc1ccc2ccccc2n1)c1ccccc1O	5.09
CCOc1ccc(C(c2c(NC(=O)c3ccccc3)sc(C)c2C)N2CCN(CCO)CC2)cc1 (centres undefined)	46.3
COc1ccc(-c2nc3c(s2)CCc2onc(-c4ccc(OC)cc4)c2-3)cc1	7.59
O=C(Nc1ccccc1F)N1CCCCN2[C@H](CO)[C@H](c3ccc(/C=C/c4ccccc4)cc3)[C@H]2C1	14
CCc1nc(N)nc(N)c1-c1ccc(Cl)cc1	5.12
COc1cc(C(=O)N2CCC(N3CCN(C)CC3)CC2)ccc1Nc1ncc2c(n1)N(C)c1ccccc1C(=O)N2C	4.75
C[C@@H]1CN([C@H](C)CO)C(=O)c2cc(NS(=O)(=O)c3ccc(Cl)cc3)ccc2O[C@@H]1CN(C)Cc1ccc(Cl)c(Cl)c1	29.1
CC(=O)Oc1ccc(-c2ccc(C(=O)Nc3cccc(S(=O)(=O)N4CCOCC4)c3)cc2)cc1	12.9
C[C@@H]1CN([C@@H](C)CO)C(=O)c2cccc(NS(=O)(=O)c3ccc(Cl)cc3)c2O[C@@H]1CN(C)Cc1ccc(C(=O)Nc2ccccc2N)cc1	5.31
CCN1C/C(=C/c2ccc(N3CCOCC3)cc2)C(=O)/C(=C/c2ccc(N3CCOCC3)cc2)C1	5.5
CC1(C(=O)NCc2ccco2)Cc2c(-c3cccc(C(N)=O)c3)ccnc2O1 (centres undefined)	5.37
Cc1ccc(C(C)C)c(OCc2ccc(C(=O)N/N=C/c3ccc(O)cc3O)cc2)c1	1.46
CCOc1cc2[nH]c(=S)n(Cc3ccc(C(=O)NCCN(CC)CC)cc3)c(=O)c2cc1OCC	31.1
Oc1c(C(c2ccc(Cl)cc2)N2CCCC2)cc(Cl)c2cccnc12 (centres undefined)	9.79
O=c1cc(CN2CCN(Cc3ccccc3)CC2)c2ccc(O)c(O)c2o1	23.3
C(=NNc1ccc2ccccc2n1)c1ccccn1	1.55
Oc1[nH]c2ccc(Br)cc2c1N=NC(=S)N1CCOCC1	26.5

SMILES	AC35 [µM]
CN(C)c1ccc(-c2ccnc3c2CC(C)(C(=O)NCc2ccco2)O3)cc1 (centres undefined)	6.85
C[C@@H]1CN([C@@H](C)CO)C(=O)c2cc(N(C)C)ccc2O[C@H]1CN(C)Cc1ccc(C(=O)Nc2ccccc2N)cc1	12.7
CC(=O)ON=C1C=CC(=C(C#N)c2ccccc2)C=C1	13.3
C[C@@H]1CN([C@H](C)CO)C(=O)c2cc(NC(=O)CCCCCC(=O)Nc3ccccc3N)ccc2O[C@@H]1CN(C)Cc1ccc(Cl)c(Cl)c1	5.24
O=C1c2ccccc2C(=O)N1CCCCNc1ccccc1	3.44
C=C1C(=O)[C@@]23[C@H](O)C[C@@H]4C(C)(C)CC[C@H](O)[C@@]4(C)[C@@H]2CC[C@@H]1[C@H]3O	9.06
CC(=O)Nc1cccc(-c2ccnc3c2CC(C)(C(=O)NCc2ccc(N(C)C)cc2)O3)c1 (centres undefined)	7.51
CCc1nc(N)nc(N)c1-c1ccc(Cl)c(N=[N+]=[N-])c1	6.23
CCC1=Nc2cc(C(=O)NCC3CCCO3)ccc2Sc2ccc(Br)cc21 (centres undefined)	6.5
C[C@H]1CN([C@@H](C)CO)S(=O)(=O)c2ccc(C#Cc3ccncc3)cc2O[C@@H]1CN(C)S(=O)(=O)c1ccccc1	24.4
N/C(=C\C(=O)c1cc(Cl)ccc1O)C(Cl)(Cl)Cl	4.64
CC(C)(C)[S@](=O)N1Cc2cc(C(=O)NCC(F)(F)F)nc(-c3cccc(-c4cccc(F)c4)c3)c2[C@@H]1CCO	18.9
COc1ccc(C(=O)CN2C(=O)c3ccccc3S2(=O)=O)cc1	0.279
COc1ccc(C(=O)Nc2cccc(C(=O)N/N=C/c3ccc(OC)cc3OC)c2)cc1	31.2
CN=c1scc(-c2ccccc2F)n1/N=C/c1ccc[nH]1	0.194
CC(C)(C)c1ccc(/C=N/Nc2ccc(C(=O)O)cc2)cc1	2.22
COc1ccc(S(=O)(=O)N2CC[C@@H]3[C@@H](CO)Nc4ccc(-c5ccc(C#N)cc5)cc4[C@@H]32)cc1	0.625
Cc1cc(C(=O)CN2C(=O)c3ccccc3S2(=O)=O)c(C)n1C(C)C	3.04
C[C@@H]1CN([C@@H](C)CO)C(=O)c2cccc(NS(=O)(=O)c3ccccc3)c2O[C@@H]1CN(C)Cc1ccc(C(=O)Nc2ccccc2N)cc1	5.67
COc1ccc(/C=C2\Oc3ccccc3C2=O)cc1	8.51
C[C@H](CO)N1C[C@H](C)[C@H](CN(C)Cc2ccc(C(=O)Nc3ccccc3N)cc2)Oc2ccc(N(C)C)cc2C1=O	11.7
Cc1ccc(N2C(=O)c3cccc4c(N)ccc(c34)C2=O)c2cccnc12	< 0.03
